The values that follow come from USRE39155E1, “Use of 1,3-oxathiolane nucleoside analogues in the treatment of hepatitis B” (Shire BioChem Inc., priority 1991, dated 2006).

In one test the test system is hepatitis B virus. Briefly: General statement of activity against hepatitis B virus in vitro and in vivo.
The test system of a further test is Duck hepatitis B virus. The test can be described thus: Activity against Duck hepatitis B virus in primary duck hepatocyte cultures, DHBV DNA dot-blot. It is filed as cell-based. The following applies: DHBV-infected primary duck hepatocytes. How it is done:
The DNA from DHBV-infected hepatocytes was extracted and spotted onto a nitrocellular filter. […] The DNA was extracted from 6-cm cell culture dishes at various times post-plating. In the VC group, cells were harvested at 2, 6, 8, 10, 14, 18 and 20 days. Duplicate samples were spotted for days 14, 18 and 20. […] Drugs were added to the culture at 2 days post-plating and maintained throughout media changes every 2 days. The total intracellular DNA was extracted from cells using the standard phenol extraction method. […] The pellet of nucleic acid was washed with ethanol and dried. The DNA was dissolved in a solution containing 12.5 mM Tris HCl, pH 7.5, 10 mM EDTA, 30% glycerol and 0.01% bromophenol blue.

The subject of the next test is human hepatitis B virus. Briefly: 2.2.15 cells (Hep G2 transfected with HBV genomic DNA), extracellular HBV DNA dot-blot after 10 day treatment. It is filed as cell-based. The protocol:
(ii) The method used for this test is described in detail in Korba et al. Antiviral Research 15, 217-228, 1992, and summarised below.
Hep G2 cells transfected with human hepatitis B virus genomic DNA (2.2.15 cells) were grown and maintained in RPMI-1640 culture medium containing 5% foetal bovine serum, 2 mM glutamine and 50 μg/ml gentamicin sulphate, and checked routinely for G418 resistance. Cultures of 2.2.15 cells were grown to confluence in 24 well tissue culture plates and maintained for 2 to 3 days in that condition prior to drug treatment.
These solutions were diluted as needed in culture medium.
The culture medium on the confluent cells was changed 24 hours prior to exposure to test compounds. During the 10 day treatment the culture medium was changed daily. After 10 days of treatment the culture medium was collected and frozen at −70° C. for HBV DNA analysis.
To analyse extracellular HBV DNA, 0.2 ml samples of culture medium were incubated for 20 minutes at 25° C. in 1M NaOH/10X SSC (1X SSC is 0.15M NaCl/0.015 M Sodium Citrate, pH 7.2) and then applied to nitrocellulose membranes presoaked in 20X SSC using a blotting apparatus. Samples were neutralised by washing twice with 0.5 ml of 1M Tris, pH 7.2/2M NaCl and once with 5 ml of 20X SSC. Filters were then rinsed in 2X SSC and baked at 80° C. for 1 hour under vacuum.
A purified 3.2 kb EcoRl HBV DNA fragment was labelled with [^32P]dCTP by nick translation and used as a probe to detect HBV DNA on the dot-blot by DNA hybridisation. After washing, the hybridised blot was dried and ^32P was quantified using an Ambis beta scanner.

[1] abbreviates: Duck hepatitis B virus, Hepatocyte, read-out: IC50.
[2] abbreviates: 2.2.15 cells, 10 day treatment, extracellular HBV DNA, read-out: IC50.

SMILES strings stand for the structures. Converted amounts (≈) assume the structure as drawn. Read-outs that look alike come from different tables or passages of the source.

With `Nc1ccn(C2CSC(CO)O2)c(=O)n1` (racemic) [Racemate, cis-4-amino-1-(2-hydroxymethyl-1,3-oxathiolan-5-yl-(1H)-pyrimidin-2-one], the “activity against the hepatitis B virus” value with hepatitis B virus (listed as BCH-189) is “active both in vitro and in vivo”; in the test with hepatitis B virus (listed as compound of formula (I)) it was “inhibit the hepatitis B virus both in vitro and in vivo”.

As usually defined, the IC50 is the concentration needed to halve the response being measured. Regarding `Nc1ccn([C@H]2CS[C@@H](CO)O2)c(=O)n1` (stereo in doubt) [Compound 3TC, (2R,cis)-4-amino-1-(2-hydroxymethyl-1,3-oxathiolan-5-yl)-(1H)-pyrimidin-2-one], in the test on Duck hepatitis B virus (setting [1]), the IC50 was less than 1 µg/mL. For `Nc1ccn([C@@H]2CS[C@H](CO)O2)c(=O)n1` [Compound 3TC, (2R,cis)-4-amino-1-(2-hydroxymethyl-1,3-oxathiolan-5-yl)-(1H)-pyrimidin-2-one], the “activity against the hepatitis B virus” value with hepatitis B virus was “active both in vitro and in vivo”. The half-inhibitory concentration (IC50) with human hepatitis B virus (Hepatitis B virus, HepG2, 240 h, 2.2.15 cells, 10 day treatment, extracellular HBV DNA, read-out: IC50) turned out to be 5.6 µM.

As to `Nc1ncnc2c1ncn2[C@@H]1O[C@H](COP(=O)(O)O)[C@@H](O)[C@@H]1O` [araAMP, adenosylarabinoside-5′-monophosphate], the half-inhibitory concentration (IC50) with human hepatitis B virus (setting [2]) worked out at 2.9 µM. `Nc1nc2c(ncn2[C@H]2C[C@@H](CO)[C@H](O)C2)c(=O)[nH]1` [cdG, carbocyclic deoxyguanosine]: the IC50 in the test on human hepatitis B virus (setting [2]) is 0.034 µM. Turning to `Nc1ccn([C@H]2CC[C@@H](CO)O2)c(=O)n1` [ddC, 2′,3′-dideoxycytidine], the half-inhibitory concentration (IC50) with human hepatitis B virus (Hepatitis B virus, HepG2, 240 h, read-out: IC50 μM) stood at 2.2 µM. Take `Nc1nc(N)c2ncn([C@H]3CC[C@@H](CO)O3)c2n1` [ddDAPR, 2,6-diaminopurine-9-β-D-2′,3′-dideoxyribofuranoside]: in the test on Duck hepatitis B virus, the “IC50” value came out at 0.07 µg/mL (≈ 0.28 µM).

On to `Nc1nc2c(ncn2[C@H]2CC[C@@H](CO)O2)c(=O)[nH]1` [ddG, 2′,3′-dideoxy-guanosine], for which the IC50 in the test with Duck hepatitis B virus (setting [1]) is 0.07 µg/mL (≈ 0.279 µM).
